Source: the supplement of paper PMC11451515

Test system: P12-Ichikawa
Experiment: cell viability relative to DMSO control; higher = less cytotoxic
Settings: 48 h
Procedure, shortened: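 Viability, reported as a per-plate percentage of DMSO wells with cell-free wells as background, came from CellTiter-Glo One luminescence. Reading took place after 48 h at 37°C. Before that, NOMO1 or SEM (500 cells/well) or P12-Ichikawa (1000 cells/well) leukemia cells, adapted for at least four passages in each medium, were seeded in 1536-well plates (5 μl) and pin-dosed with library compounds in DMSO, 47 μM to 0.79 nM over 11 threefold points.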

[1] = HPLM + 10% dialyzed FBS, 0.000781 µM
[2] = HPLM + 10% dialyzed FBS, 0.00234 µM
[3] = HPLM + 10% dialyzed FBS, 0.00702 µM
[4] = HPLM + 10% dialyzed FBS, 0.0211 µM
[5] = HPLM + 10% dialyzed FBS, 0.0632 µM
[6] = HPLM + 10% dialyzed FBS, 0.19 µM
[7] = HPLM + 10% dialyzed FBS, 0.569 µM
[8] = HPLM + 10% dialyzed FBS, 1.71 µM
[9] = HPLM + 10% dialyzed FBS, 5.12 µM
[10] = HPLM + 10% dialyzed FBS, 15.4 µM
[11] = HPLM + 10% dialyzed FBS, 46.1 µM
[12] = RPMI 5 mM glucose + 10% FBS, 0.000781 µM
[13] = RPMI 5 mM glucose + 10% FBS, 0.00234 µM
[14] = RPMI 5 mM glucose + 10% FBS, 0.00702 µM
[15] = RPMI 5 mM glucose + 10% FBS, 0.0211 µM
[16] = RPMI 5 mM glucose + 10% FBS, 0.0632 µM
[17] = RPMI 5 mM glucose + 10% FBS, 0.19 µM
[18] = RPMI 5 mM glucose + 10% FBS, 0.569 µM
[19] = RPMI 5 mM glucose + 10% FBS, 1.71 µM
[20] = RPMI 5 mM glucose + 10% FBS, 5.12 µM
[21] = RPMI 5 mM glucose + 10% FBS, 15.4 µM
[22] = RPMI 5 mM glucose + 10% FBS, 46.1 µM
[23] = RPMI 5 mM glucose + 10% dialyzed FBS, 0.000781 µM
[24] = RPMI 5 mM glucose + 10% dialyzed FBS, 0.00234 µM
[25] = RPMI 5 mM glucose + 10% dialyzed FBS, 0.00702 µM
[26] = RPMI 5 mM glucose + 10% dialyzed FBS, 0.0211 µM
[27] = RPMI 5 mM glucose + 10% dialyzed FBS, 0.0632 µM
[28] = RPMI 5 mM glucose + 10% dialyzed FBS, 0.19 µM
[29] = RPMI 5 mM glucose + 10% dialyzed FBS, 0.569 µM
[30] = RPMI 5 mM glucose + 10% dialyzed FBS, 1.71 µM
[31] = RPMI 5 mM glucose + 10% dialyzed FBS, 5.12 µM
[32] = RPMI 5 mM glucose + 10% dialyzed FBS, 15.4 µM
[33] = RPMI 5 mM glucose + 10% dialyzed FBS, 46.1 µM

Compound	cell viability [1] [%]	cell viability [2] [%]	cell viability [3] [%]	cell viability [4] [%]	cell viability [5] [%]	cell viability [6] [%]	cell viability [7] [%]	cell viability [8] [%]	cell viability [9] [%]	cell viability [10] [%]	cell viability [11] [%]	cell viability [12] [%]	cell viability [13] [%]	cell viability [14] [%]	cell viability [15] [%]	cell viability [16] [%]	cell viability [17] [%]	cell viability [18] [%]	cell viability [19] [%]	cell viability [20] [%]	cell viability [21] [%]	cell viability [22] [%]	cell viability [23] [%]	cell viability [24] [%]	cell viability [25] [%]	cell viability [26] [%]	cell viability [27] [%]	cell viability [28] [%]	cell viability [29] [%]	cell viability [30] [%]	cell viability [31] [%]	cell viability [32] [%]	cell viability [33] [%]
C#Cc1cccc(Nc2ncnc3cc(OCCOC)c(OCCOC)cc23)c1	98.2	101	97.2	89.3	99.5	100	101	91.3	88.5	84.3	62	96.6	92.8	92.1	95.5	95.6	92	88.6	88.4	78.9	83.6	52.5	96.5	93.2	95.5	91.8	96.4	93.3	86.8	80.2	83.3	78.7	56.6
CC(=O)O.Cc1c(-c2ccc(O)cc2)n(Cc2ccc(OCCN3CCCCCC3)cc2)c2ccc(O)cc12	103	101	99.2	98.1	101	111	101	106	106	101	100	92.3	92.5	92.4	87.6	99.3	103	96.1	109	101	100	101	89.2	94.5	96.3	94.5	92.5	98.9	98.3	95.4	113	104	100
CC\1=C/C=C\C=[N]1[Pt](N)(Cl)Cl	98.1	108	113	108	105	109	102	114	104	107	108	98.1	98.4	102	104	118	118	114	106	99.1	108	97.3	102	109	98.3	107	114	112	110	105	105	87.2	91.4
C[C@]\12CC[C@H](O)CC1=C/CC3C2CC[C@@]\4(C)C3C\C=C4[N]5C=NC6=C5C=CC=C6 (some centres not stated)	94.2	95.5	102	106	103	105	105	104	107	106	107	82.9	94.2	93.8	112	107	106	105	105	102	99.5	98.5	89.6	97.4	103	108	103	102	103	100	107	104	102
